Two compounds from patent US8859589B2 (priority 2008, dated 2014) can be followed below.

Several values for one entry are separate records, joined by “and”; a condition that tells them apart may be missing. Equal entries are not always repeated. Where two headings read alike, the source gives them in different places. Where only a bound is given, the exact number is not on record here.

In one data set the test system is CV Cowpox Virus. It is filed as cell-based.
The next data set has as its system Cowpox Virus-BR. On the set-up: species or system BALB/c mice. The conditions noted are these: mouse, in vivo.
A short description of data set [1]: in vitro.
Data set [2] in a line: in vitro. The source holds these as a separate data set.
For data set [3], the system named is dUTPase deficient mutant strain of VV. The class given is cell-based, Vaccinia Virus.
For a further data set, the system named is CV. Further details: species or system mice. The conditions noted are these: mouse, in vivo.
The test system of data set [4] is thymidine kinase deficient mutant strain of VV. The class given is cell-based, Vaccinia Virus.
Another data set has as its system VV or CV. Further details: species or system mice. The following applies: mouse, in vivo.
The test system of data set [5] is wild-type VV (Vaccinia Virus). The class given is cell-based.
The next data set has as its system VV. Further details: species or system mice. The following applies: mouse, in vivo.

As for `O=c1[nH]c(=O)n([C@H]2C[C@H](O)[C@@H](CO)S2)cc1I` [5-iodo-4′-thio-2′-deoxyuridine], the “effective concentration against CV” value in the data set with CV Cowpox Virus is on record as “less than 1.0 μM”. Besides, in the data set on Cowpox Virus-BR, the “MDD ± STDEV (Mean Day of Death)” value is 18.0 and 16.0 ± 2.8 and 14.0 and 14.0 ± 5.7. Also, the “Mortality Number” value with Cowpox Virus-BR is 0/15 and 0/13 and 1/15 and 2/15. The CC50 in the data set “in vitro [1]” and in “in vitro [2]” was greater than 100 µM in each case. Moreover, the “antiviral activity against mutant strain of VV” value in [3] and in data set [4] was “retained its antiviral activity” throughout. For the same compound, the protection from mortality entry in the data set with CV was “complete protection from mortality”; in the data set with VV it was “completely protected”. Moreover, in the data set on VV or CV, the reduction in mortality entry is recorded as “significant reduction in mortality”. In addition, the “effective concentration against wild-type VV” value in data set [5] is listed as “less than 1.0 μM”.
In the case of `Nc1ccn(C[C@@H](CO)OCP(=O)(O)O)c(=O)n1` [Cidofovir, reference compound], in the data set with Cowpox Virus-BR, the “Mortality Number” value is 0/15 and 0/14; the “Mortality Percent” value amounted to 0%.
